Reference: patent publication US4308181A, “Polypeptide compositions” (American Home Products Corporation, priority 1980, dated 1981)
Residues, ends and D or L forms follow the SMILES beside them.

Test system: T lymphocytes isolated from spleens of male CBA/J or NZB mice
Test: T lymphocyte proliferation, 3H-thymidine uptake
Type: cell-based
Conditions: 48 h culture
Protocol: The activity of the compounds of the Examples is determined according to the following procedure:
T lymphocytes are isolated from spleens of male CBA/J or NZB mice. Cell homogenates are prepared in Hank's balanced salt solution (HBSS). After removal of larger particles and repeated washing of the cells in HBSS they are suspended in minimum essential medium (MEM) and passed through a glass wool column to remove macrophages. The cells are then incubated on a nylon wool column at 37° C., 95% air, 5% CO2, for 45 minutes. The non-adherant T lymphocytes are then eluted from the column, counted, and adjusted to 20×10^6 cells/ml. 50 μl. of cells are cultured (37° C., 95% air, 5% CO2) with compound, for 48 hours before addition of 0.5 μCi. of 3H-thymidine for the last 16 hours of culture. The total volume of the culture system is 200 μ l. The cells are then harvested on a multiple automatic sample harvester (MashII), the glass fiber filter disks placed in 10 ml. of xylene base scintillation fluid, and counted for 1 minute in a liquid scintillation counter. Results are reported as CPM+SE. Comparisons are made between counts obtained with control cultures and cultures containing compound and a determination made as to whether the compounds are active at the dosage tested.

[1] = 0.75 ng/culture, run with control 19,275 ± 1298
[2] = 1.5 ng/culture, run with control 9,876 ± 951
[3] = 1.5 ng/culture, run with control 19,275 ± 1298
[4] = 6.0 ng/culture, run with control 9,876 ± 951
[5] = 6.0 ng/culture, run with control 19,275 ± 1298
[6] = 25 ng/culture, run with control 9,876 ± 951
[7] = 100 ng/culture, run with control 9,876 ± 951

Row | Compound | H-Thymidine Uptake CPM + S.E. [1] | H-Thymidine Uptake CPM + S.E. [2] | H-Thymidine Uptake CPM + S.E. [3] | H-Thymidine Uptake CPM + S.E. [4] | H-Thymidine Uptake CPM + S.E. [5] | H-Thymidine Uptake CPM + S.E. [6] | H-Thymidine Uptake CPM + S.E. (25 ng/culture, run with control 19,275 ± 1298) | H-Thymidine Uptake CPM + S.E. [7]
1 | CC(=O)N[C@@H](CO)C(=O)N[C@@H](Cc1c[nH]cn1)C(=O)N[C@@H](CC(C)C)C(=O)N[C@H](C(N)=O)C(C)C.CC(=O)O [Ac--Ser--His--Leu--Val--NH2, N-acetylseryl-L-histidyl-L-leucyl-L-valinamide, acetate] (Ac-SHLV-NH2) | 26,137 ± 6158 CPM | 30,925 ± 3256 CPM | 32,646 ± 2284 CPM | 26,741 ± 3049 CPM | 30,425 ± 8896 CPM | 28,206 ± 2233 CPM | 32,278 ± 5373 CPM | 20,758 ± 3027 CPM
2 | CC(=O)NCC(=O)N[C@@H](CO)C(=O)N[C@@H](Cc1c[nH]cn1)C(=O)N[C@@H](CC(C)C)C(N)=O [Ac--Gly--Ser--His--Leu--NH2, N-acetylglycyl-L-seryl-L-histidyl-L-leucinaminde, acetate] (Ac-GSHL-NH2) | 41,019 ± 6047 CPM | 15,028 ± 1178 CPM | 48,033 ± 5499 CPM | 19,423 ± 1031 CPM | 38,254 ± 7188 CPM | 19,433 ± 3092 CPM | – | 20,409 ± 4081 CPM
